test system: adhesion of CGL1 cells to MN/CA IX; assay: Inhibition of cell adhesion to MN/CA IX dots by oligopeptides added to the media with the cell suspension (Figure 4B); format: cell-based, human; conditions: nonapeptides 7 + 2 aa, C-terminal alanine amide, absorbance at 630 nm of stained attached cells

Substance | activity in cell adhesion inhibition of phage display-selected peptides (in words)
2: AITFNAQYA, selected from phage display library on peptide F, eluted with M75 [compound 2] | highest activity
1: AKKMKRRKA, selected from phage display library on peptide F, eluted with M75 [compound 1] | less active
3: ASASAPVSA, selected from phage display library on peptide F, eluted with M75 [compound 3] | marginally posi- tive only in ELISA

molecular target: T1, M75 epitope of immobilized GST-MN (Homo sapiens, UniProt Q16790); assay: Competition ELISA, peptides binding to the epitope of immobilized GST-MN (Figure 4A); conditions: nonapeptides 7 + 2 aa, C-terminal alanine amide
T1 construct: made in house; host or cells: bacteria

Substance | activity in competition ELISA of phage display-selected peptides (in words)
2: AITFNAQYA, selected from phage display library on peptide F, eluted with M75 [compound 2] | highest activity
1: AKKMKRRKA, selected from phage display library on peptide F, eluted with M75 [compound 1] | less active
3: ASASAPVSA, selected from phage display library on peptide F, eluted with M75 [compound 3] | marginally posi- tive

test system: mAb M75; assay: Competition ELISA with mAb M75 (antigen competing for M75, Figure 3); format: binding; conditions: GST-MN 10 ng ml-1 adsorbed; mAb M75 ascites fluid final dilution 10-6; antibody + antigen mixtures adsorbed 1.5 h; peroxidase/OPD read-out

Substance | 50% inhibition concentration in competition ELISA with M75
D: GGSSGEDDPLGEEDLPSEEDSPC (aa 51-72 of the PG region) | 1 ng/mL
F: EDPPGEEDLPGEEDLPGEEDLPEVC (aa 75-98 of the PG region) | 1 ng/mL

same assay, conditions: GST-MN adsorbed; mAb M75 ascites 10-6

Substance | serological activity in competition ELISA with M75 (in words)
N: oligopeptide 7 + 2 aa APGEEDLPA | minimum serologically active sequence
EVKPKSEEEGSLKLE [Peptide G] | inactive

same assay, conditions: compared with peptides D and F (50% inhibition at 1 ng ml-1)

Substance | fold less active than peptides D and F in competition ELISA
GEEDLPSEEDSPREEDPPGEEDLPGEC [Peptide E] | 1000 x

same assay, conditions: peptide at 100 g ml-1 (so in the source); C-terminal amide

Substance | competition in ELISA with M75 at 100 g ml-1
ADLPGEEA [6 + 2 aa permutation] | negative
APGEEDLA [6 + 2 aa permutation] | negative
AEDLPGEEA [oligopeptide 7 + 2 aa] | negative
AGEEDLPA [6 + 2 aa permutation] | negative
ADLPGEEDA [oligopeptide 7 + 2 aa] | negative
AEDLPGEA [6 + 2 aa permutation] | negative
ALPGEEDLA [oligopeptide 7 + 2 aa] | negative
AEEDLPGEA [oligopeptide 7 + 2 aa] | negative
ALPGEEDA [6 + 2 aa permutation] | negative
AEEDLPGA [6 + 2 aa permutation] | negative
